Experimental findings from US10259810B2, “N-sulfonylated pyrazolo[3,4-b]pyridin-6-carboxamides and method of use” (AbbVie S.à.r.l., priority 2015, dated 2019) are described below.

The target in test [1] is T1, ΔF508-CFTR (Homo sapiens, UniProt P13569, DEL508-508).
T1 construct: host or cells: CFBE41o-, doxycycline-inducible
As to the kind of experiment: CFTR cell surface levels using HRP-tagged ΔF508-CFTR expressing CFBE cells, intrinsic corrector capacity. The class given is cell-based. Set-up: % Activation: concentration or dose not given beside the values. The settings on record: HRP-tagged ΔF508-CFTR expressing CFBE41o- cells, compound alone (intrinsic corrector capacity), 20 hours at 33° C.; for EC50: read-out: EC50. In a few lines:
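Surface ΔF508-CFTR was measured as HRP chemiluminescence from an extracellular-loop-4 tag, expressed as percent activity between DMSO and a […] corrector control.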

In test [2] the target is T1, ΔF508-CFTR. Nature of the test: CFTR cell surface levels using HRP-tagged ΔF508-CFTR expressing CFBE cells, in the presence of a co-corrector. The class given is cell-based. The following applies: HRP-tagged ΔF508-CFTR CFBE cells, in the presence of 3 μM co-corrector; for EC50: read-out: EC50. The method in brief: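 Chemiluminescent read-out of surface HRP (15 min, dark) after PBS washes. Activity is normalized as 100×(sample−DMSO)/(3 μM co-corrector alone−DMSO).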

T1 sequence (P13569 with tags, fused parts or gaps DEL508-508): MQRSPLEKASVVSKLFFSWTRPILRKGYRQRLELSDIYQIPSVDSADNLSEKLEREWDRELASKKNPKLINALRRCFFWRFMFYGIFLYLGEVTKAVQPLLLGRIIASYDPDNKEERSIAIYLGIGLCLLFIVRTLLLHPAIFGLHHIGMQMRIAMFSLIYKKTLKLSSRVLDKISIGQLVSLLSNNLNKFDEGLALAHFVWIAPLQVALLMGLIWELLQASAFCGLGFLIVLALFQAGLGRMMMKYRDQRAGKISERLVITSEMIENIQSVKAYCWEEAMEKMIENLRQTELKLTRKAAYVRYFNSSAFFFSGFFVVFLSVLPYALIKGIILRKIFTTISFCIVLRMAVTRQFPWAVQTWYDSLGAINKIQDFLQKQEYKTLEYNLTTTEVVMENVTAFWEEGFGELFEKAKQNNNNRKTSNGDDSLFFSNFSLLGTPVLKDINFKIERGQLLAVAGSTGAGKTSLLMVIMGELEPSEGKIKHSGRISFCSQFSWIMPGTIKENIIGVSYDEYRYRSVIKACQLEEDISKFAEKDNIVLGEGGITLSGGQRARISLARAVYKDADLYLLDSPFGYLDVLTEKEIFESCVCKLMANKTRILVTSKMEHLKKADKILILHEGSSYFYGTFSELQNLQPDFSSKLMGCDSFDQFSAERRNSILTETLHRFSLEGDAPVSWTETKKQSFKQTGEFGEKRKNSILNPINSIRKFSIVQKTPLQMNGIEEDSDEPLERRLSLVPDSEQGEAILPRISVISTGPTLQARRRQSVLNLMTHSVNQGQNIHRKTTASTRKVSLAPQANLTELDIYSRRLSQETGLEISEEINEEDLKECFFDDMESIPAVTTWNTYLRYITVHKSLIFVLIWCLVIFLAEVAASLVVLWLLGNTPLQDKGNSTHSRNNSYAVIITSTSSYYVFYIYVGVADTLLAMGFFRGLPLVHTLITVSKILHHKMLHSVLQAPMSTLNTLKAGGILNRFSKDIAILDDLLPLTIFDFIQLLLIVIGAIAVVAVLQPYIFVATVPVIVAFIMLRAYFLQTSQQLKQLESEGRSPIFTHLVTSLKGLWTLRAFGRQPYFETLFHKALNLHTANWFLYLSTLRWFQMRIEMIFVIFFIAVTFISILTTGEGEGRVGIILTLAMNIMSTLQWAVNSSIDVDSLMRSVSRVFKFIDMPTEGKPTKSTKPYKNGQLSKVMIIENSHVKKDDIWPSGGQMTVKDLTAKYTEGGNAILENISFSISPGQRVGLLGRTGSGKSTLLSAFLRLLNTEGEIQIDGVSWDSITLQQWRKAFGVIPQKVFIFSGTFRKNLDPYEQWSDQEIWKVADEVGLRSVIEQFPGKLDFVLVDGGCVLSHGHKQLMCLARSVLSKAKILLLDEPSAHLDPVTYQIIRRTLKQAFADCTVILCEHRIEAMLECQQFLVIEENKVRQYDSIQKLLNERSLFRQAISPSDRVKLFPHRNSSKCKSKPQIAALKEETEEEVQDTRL

In the case of `COC1CCN(c2ccc(-c3cc(C(=O)NS(C)(=O)=O)nc4c3c(C(C)C)nn4C3CCCCC3)cn2)C1` (stereo not drawn) [Compound 106, 1-cyclohexyl-N-(methanesulfonyl)-4-[6-(3-methoxypyrrolidin-1-yl)pyridin-3-yl]-3-(propan-2-yl)-1H-pyrazolo[3,4-b]pyridine-6-carboxamide], on ΔF508-CFTR [1], the “% Activation” value is given as 162.75% and the EC50 was 526 nM. At ΔF508-CFTR [2], the “% Activation” value worked out at 348.1% and the EC50 came to 394 nM.
In the case of `COC(=O)N1CC(c2nn(-c3cc(F)cc(F)c3)c3nc(C(=O)NS(C)(=O)=O)cc(-c4ccc(NC(C)=O)cc4)c23)C1` [Compound 107, methyl 3-{4-(4-acetamidophenyl)-1-(3,5-difluorophenyl)-6-[(methanesulfonyl)carbamoyl]-1H-pyrazolo[3,4-b]pyridin-3-yl}azetidine-1-carboxylate], on ΔF508-CFTR [1], the “% Activation” value is given as 64.54% and the EC50 turned out to be 3340 nM. In addition, on ΔF508-CFTR [2], the “% Activation” value amounted to 219.4% and the EC50 turned out to be 3340 nM.
As for `CC(C)c1nn(C2CCCCC2)c2nc(C(=O)NS(C)(=O)=O)cc(-c3ccc(N4CCCC(F)C4)nc3)c12` (stereo not drawn) [Compound 108, 1-cyclohexyl-4-[6-(3-fluoropiperidin-1-yl)pyridin-3-yl]-N-(methanesulfonyl)-3-(propan-2-yl)-1H-pyrazolo[3,4-b]pyridine-6-carboxamide], the “% Activation” value on ΔF508-CFTR [1] was 218.05%; at ΔF508-CFTR [2] it was 428.3%. Besides, the 50% effective concentration (EC50) on ΔF508-CFTR [1] was 561 nM; at ΔF508-CFTR [2] it was 509 nM.
In the case of `COCCN(C)c1ccc(-c2cc(C(=O)NS(C)(=O)=O)nc3c2c(C(C)C)nn3-c2cccc(N3CCCC3)c2)cc1` [Compound 109, N-(methanesulfonyl)-4-{4-[(2-methoxyethyl)(methyl)amino]phenyl}-3-(propan-2-yl)-1-[3-(pyrrolidin-1-yl)phenyl]-1H-pyrazolo[3,4-b]pyridine-6-carboxamide], on ΔF508-CFTR [1], the “% Activation” value came to 381.05% and the EC50 was 613 nM. On ΔF508-CFTR [2], the “% Activation” value came to 571.3% and the EC50 came to 634 nM.
For `CN(c1ccc(-c2cc(C(=O)NS(C)(=O)=O)nc3c2c(C2CCC2)nn3-c2cccc(N3CCCC3)c2)cc1)C1CCOCC1` [Compound 111, 3-cyclobutyl-N-(methanesulfonyl)-4-{4-[methyl(oxan-4-yl)amino]phenyl}-1-[3-(pyrrolidin-1-yl)phenyl]-1H-pyrazolo[3,4-b]pyridine-6-carboxamide], in that order: 411.63%, 444 nM, 596.8% and 378 nM.
For `CCS(=O)(=O)NC(=O)c1cc(-c2cnc(N3CCOCC3)nc2)c2c(C(C)C)nn(-c3ccccc3)c2n1` [Compound 112, N-(ethanesulfonyl)-4-[2-(morpholin-4-yl)pyrimidin-5-yl]-1-phenyl-3-(propan-2-yl)-1H-pyrazolo[3,4-b]pyridine-6-carboxamide] the same measures were 254.85%, 699 nM, 472.8% and 884 nM.
Consider `CCS(=O)(=O)NC(=O)c1cc(-c2ccc(OC)cc2)c2c(C)nn(-c3ccc(C)c(Cl)c3)c2n1` [Compound 114, 1-(3-chloro-4-methylphenyl)-N-(ethanesulfonyl)-4-(4-methoxyphenyl)-3-methyl-1H-pyrazolo[3,4-b]pyridine-6-carboxamide], for which, on ΔF508-CFTR [1], the “% Activation” value is listed as 130.85% and the EC50 came to 1140 nM. Besides, on ΔF508-CFTR [2], the “% Activation” value was 277.45% and the EC50 was found to be 952 nM.
`CCS(=O)(=O)NC(=O)c1cc(-c2ccc(N3CCOCC3)cc2)c2c(C)nn(-c3cc(C)cc(C)c3)c2n1` [Compound 115, 1-(3,5-dimethylphenyl)-N-(ethanesulfonyl)-3-methyl-4-[4-(morpholin-4-yl)phenyl]-1H-pyrazolo[3,4-b]pyridine-6-carboxamide]: at ΔF508-CFTR [1], the “% Activation” value is reported as 216.05% and the EC50 was found to be 1050 nM. Moreover, at ΔF508-CFTR [2], the “% Activation” value came out at 389.6% and the 50% effective concentration (EC50) came out at 665 nM.
For `CCS(=O)(=O)NC(=O)c1cc(-c2ccc(N3CCOCC3)cc2)c2c(C)nn(-c3ccc(F)c(F)c3)c2n1` [Compound 116, 1-(3,4-difluorophenyl)-N-(ethanesulfonyl)-3-methyl-4-[4-(morpholin-4-yl)phenyl]-1H-pyrazolo[3,4-b]pyridine-6-carboxamide], the “% Activation” value on ΔF508-CFTR [1] turned out to be 295.57%; on ΔF508-CFTR [2], 438.37%. Besides, the EC50 on ΔF508-CFTR [1] was determined as 957 nM; on ΔF508-CFTR [2], 630 nM.
For `CCS(=O)(=O)NC(=O)c1cc(N2CCC(OC)CC2)c2c(C(C)C)nn(-c3cccc(C)c3)c2n1` [Compound 118, N-(ethanesulfonyl)-4-(4-methoxypiperidin-1-yl)-1-(3-methylphenyl)-3-(propan-2-yl)-1H-pyrazolo[3,4-b]pyridine-6-carboxamide] the same measures were 289.93%, 469%, 398 nM and 280 nM.
For the compound `COCCN(C)c1ncc(-c2cc(C(=O)NS(C)(=O)=O)nc3c2c(C(C)C)nn3C2CCCCC2)cn1` [Compound 120, 1-cyclohexyl-N-(methanesulfonyl)-4-{2-[(2-methoxyethyl)(methyl)amino]pyrimidin-5-yl}-3-(propan-2-yl)-1H-pyrazolo[3,4-b]pyridine-6-carboxamide], at ΔF508-CFTR [1], the “% Activation” value came to 169.2% and the 50% effective concentration (EC50) came out at 554 nM. Besides, on ΔF508-CFTR [2], the “% Activation” value was determined as 351.03% and the EC50 came out at 348 nM.
For `CC(C)c1nn(C2CCCCC2)c2nc(C(=O)NS(C)(=O)=O)cc(-c3ccc(N(C)C4CCOC4)nc3)c12` (stereo not drawn) [Compound 122, 1-cyclohexyl-N-(methanesulfonyl)-4-{6-[methyl(oxolan-3-yl)amino]pyridin-3-yl}-3-(propan-2-yl)-1H-pyrazolo[3,4-b]pyridine-6-carboxamide], at ΔF508-CFTR [1], the “% Activation” value came out at 184.53% and the EC50 turned out to be 470 nM. In addition, at ΔF508-CFTR [2], the “% Activation” value is 405.9% and the EC50 came out at 281 nM.
For `CC(C)c1nn(C2CCCCC2)c2nc(C(=O)NS(C)(=O)=O)cc(-c3cnc(N(C)C4CCOCC4)nc3)c12` [Compound 123, 1-cyclohexyl-N-(methanesulfonyl)-4-{2-[methyl(oxan-4-yl)amino]pyrimidin-5-yl}-3-(propan-2-yl)-1H-pyrazolo[3,4-b]pyridine-6-carboxamide] the same measures were 153.8%, 428 nM, 365.8% and 239 nM.
For `CC(C)c1nn(-c2cccc(C(F)(F)F)c2)c2nc(C(=O)NS(C)(=O)=O)cc(-c3ccc(N4CCC(C#N)CC4)nc3)c12` [Compound 124, 4-[6-(4-cyanopiperidin-1-yl)pyridin-3-yl]-N-(methanesulfonyl)-3-(propan-2-yl)-1-[3-(trifluoromethyl)phenyl]-1H-pyrazolo[3,4-b]pyridine-6-carboxamide], in that order: 288.1%, 545 nM, 447.23% and 312 nM.
Consider `CC(C)c1nn(-c2cccc(N(C)C)n2)c2nc(C(=O)NS(C)(=O)=O)cc(-c3ccc(N4CCOCC4)cc3)c12` [Compound 125, 1-[6-(dimethylamino)pyridin-2-yl]-N-(methanesulfonyl)-4-[4-(morpholin-4-yl)phenyl]-3-(propan-2-yl)-1H-pyrazolo[3,4-b]pyridine-6-carboxamide], for which, at ΔF508-CFTR [1], the “% Activation” value is 369.87% and the EC50 was found to be 988 nM. Also, at ΔF508-CFTR [2], the “% Activation” value was determined as 520.33% and the EC50 was determined as 463 nM.
Turning to `CC(C)c1nn(-c2cccc(OC(F)(F)F)c2)c2nc(C(=O)NS(C)(=O)=O)cc(-c3ccc(N4CCOCC4)cc3)c12` [Compound 126, N-(methanesulfonyl)-4-[4-(morpholin-4-yl)phenyl]-3-(propan-2-yl)-1-[3-(trifluoromethoxy)phenyl]-1H-pyrazolo[3,4-b]pyridine-6-carboxamide], on ΔF508-CFTR [1], the “% Activation” value is 309.17% and the EC50 came to 597 nM. For the same compound, on ΔF508-CFTR [2], the “% Activation” value was 487.53% and the EC50 came to 322 nM.
As to `CC(C)c1nn(-c2ccc(F)c(F)c2)c2nc(C(=O)NS(C)(=O)=O)cc(-c3ccc(N4CCOCC4)cc3)c12` [Compound 127, 1-(3,4-difluorophenyl)-N-(methanesulfonyl)-4-[4-(morpholin-4-yl)phenyl]-3-(propan-2-yl)-1H-pyrazolo[3,4-b]pyridine-6-carboxamide], on ΔF508-CFTR [1], the “% Activation” value was determined as 301.45% and the half-maximal effective concentration (EC50) came out at 518 nM. Besides, on ΔF508-CFTR [2], the “% Activation” value was 449.1% and the EC50 turned out to be 252 nM.
As to `COc1cc(F)cc(-n2nc(C)c3c(-c4c(F)cc(OC)cc4F)cc(C(=O)NS(C)(=O)=O)nc32)c1` [Compound 129, 4-(2,6-difluoro-4-methoxyphenyl)-1-(3-fluoro-5-methoxyphenyl)-N-(methanesulfonyl)-3-methyl-1H-pyrazolo[3,4-b]pyridine-6-carboxamide], at ΔF508-CFTR [1], the “% Activation” value came to 187.5% and the EC50 is 1330 nM. Further, at ΔF508-CFTR [2], the “% Activation” value worked out at 307.3% and the concentration for a half-maximal effect (EC50) turned out to be 790 nM.

For orientation: EC50 means the concentration that produces a half-maximal response.
